Source: US20130060023A1, “Compounds useful for treating neurodegenerative disorders” (Satori Pharmaceuticals, Inc., priority 2011, published 2013)
Read-outs that look alike come from different tables or passages of the source.

Experiments:
Type in all cases: cell-based
Settings in all cases: Homo sapiens, 5 hours at 37° C., 1% DMSO
Aβ-38 = Aβ-38 level in conditioned media of 2B7 cells, MSD 3-PLEX ELISA
Experimental: (§1) Assays were conducted to determine the ability of a Compound of Formula I to modulate […], […], and Aβ-38. μELISA Plates: Human (6E10) Ab 3-PLEX ELISA kits were purchased from Meso Scale Discovery Labs, 9328 Gaither Road, Gaithersburg, Md. 20877 (Catalog Number […]-3). Plates with capture antibodies were blocked for 1-2 hours at room temperature with 150 μL of the manufactures blocking reagent. Conditioned Media: Cultured 2B7 cells in 96 well plate with 250 μL of media per well until confluent; Prepared serial dilutions of compounds in DMSO at 100× the final desired concentration; Washed wells with 2B7 cells 1× with 250 μL of media; Diluted DMSO stocks 1:100 into media: • Added 250 μL of media containing compounds (1% DMSO) to wells with 2B7 cells for 5 hours at 37° C. ELISA Sample Prep: Diluted conditioned media: 1 part media with 1% DMSO and 1 part blocking buffer; 150 μL of the 250 μL of conditioned media were used. Standard Curve Sample Prep: Prepared per manufacturer's protocol (see above). […] Final Wash and Readout: Washed wells 5× with MSD wash buffer; Added 150 μL 2×MSD read buffer; Read with MSD imager. […] Data Analysis: Aβ peptide levels for each peptide were calculated from the standard curve using the MSD software provided with the MSD 2400 Imager. Percent vehicle values for each compound dosage were then calculated and fit to a 4 parameter curve generating IC50 values.

Aβ-42 = Aβ-42 level in conditioned media of 2B7 cells, MSD 3-PLEX ELISA
Experimental: as §1

Aβ-40 = Aβ-40 level in conditioned media of 2B7 cells, MSD 3-PLEX ELISA
Experimental: as §1

CC(C)[C@@H](OC(=O)N1CCC1)[C@H]1C[C@@H](C)[C@H]2[C@H](O1)[C@H](O)[C@@]1(C)[C@@H]3CC[C@H]4C(C)(C)[C@@H](O[C@H]5CN([C@@H]6CCNC6=O)CCO5)CC[C@@]45C[C@@]35CC[C@]21C [Compound I-1]
IC50 (Aβ-38; inflection of 4 parameter curve, read-out: Aβ 38 DR IC50 Inflection): > 5000 nM | IC50 (Aβ-38; read-out: Aβ 38 IC50): 501 to 1000 nM | IC50 (Aβ-42; inflection of 4 parameter curve, read-out: Aβ 42 DR IC50 Inflection): > 5000 nM | IC50 (Aβ-42; read-out: Aβ 42 IC50): 100 to 500 nM | IC50 (Aβ-40; inflection of 4 parameter curve, read-out: Aβ 40 DR IC50 Inflection): > 5000 nM | IC50 (Aβ-40; read-out: Aβ 40 IC50): > 5000 nM
